The values below come from US5831000A, “Hybrid calcitonin” (Chugai Seiyaku Kabushiki Kaisha, priority 1990, dated 1998).

The subject of data set [1] is anti-salmon calcitonin human sera. Briefly: Cross reaction between anti-salmon calcitonin human antibody and hybrid calcitonin (competition with 125I labelled salmon calcitonin). The data set is classed as binding. The following applies: anti-salmon calcitonin human sera Nos. 1-4, FIG. 5. On the procedure: Salmon calcitonin was synthesized by an ordinary procedure of solid-phase synthesis. Salmon calcitonin labelled with ^125 I was prepared by the Tejedor method (Tejedor, F. and Ballesta, J. P. G.; Analytical Biochemistry, 127, 143-149 (1982)).
Four types of human sera that had been verified to contain antibody after administration of salmon calcitonin were furnished from Dr. Frederick R. Singer (CEDERS-SINAI MEDICAL CENTER). The antibody titres of those sera against salmon calcitonin were as follows:
A 0.1M borate buffer solution (pH 8.0) containing 0.5% BSA, 0.9% NaCl, 0.1% NaN3 and 0.05% Tween 20 was used as a reaction buffer. This reaction buffer, anti-salmon calcitonin human serum (diluted with the reaction buffer to a final dilution of 100-6,400) and a solution of labelled calcitonin were charged into an assist tube (Spitz type of Salschted Inc. measuring 12×75 mm) in the respective volumes shown below, stirred thoroughly, and left to stand overnight at room temperature.
The reaction solution was mixed well with 500 μl of 0.2% BGG (bovine γ-globulin, Sigma), further mixed with 1 ml of 25% PEG #6000, stirred thoroughly and thereafter left to stand at room temperature for 15 min. […] After removing the supernatant by aspiration, the radioactivity level of the residue was measured with a gamma-counter. […]

A further data set relates to hypercalcemic rats. Briefly: Efficacy of calcitonins against hypercalcemia (vitamin D3 hypercalcemic rats). The class given is in vivo, rat. The following applies: 4 IU/kg subcutaneously, FIG. 1. On the procedure: Vitamin D3 (5 mg/kg) was administered orally to 5-wk old SD male rats for 4 consecutive days to construct experimental models of hypercalcemic rats. […] Blood was sampled at given time intervals and the concentration of calcium in plasma was measured.

A further data set concerns conscious dog. Briefly: Effects of calcitonins on gastrointestinal motility (IMC) in conscious dog. The data set is classed as in vivo, beagle dog. The conditions noted are these: for effect on the IMC / gastrointestinal motility: i.v., conscious dog, summary of Table 10. From the text: A healthy beagle dog weighing about 10 kg was anesthetized with an i.v. injection of pentobarbital sodium and the abdominal cavity was opened under aseptic conditions.
Extraluminal force transducers were sutured onto the serosa of the gastric antrum stomach, duodenum and jejunum to measure circular muscle contraction, as reported previously (Itoh et al. Gastroenterol Jpn. 12, 275 1977).
The lead wires of these transducers were out of the abdominal cavity and then brought out through a skin incision made between the scapulae.
After the abdominal surgery, a 5-cm longitudinal skin incision was made in the right Frontal neck to expose the external jugular vein.
After the operation, a jacket protector was placed on the dog to protect the lead wires and the Silastic tube.
The dog was housed in individual experimental cage, and given commercial dog food at 5:00 P.M. and water was given freely.
The gastrointestinal motor activity was recorded on a thermal pen writing recorder (WR-3101, Graphtic, Tokyo, Japan) by connecting the lead wires of the transducers to the connecting cables from the amplifiers (UG-5, Nihon Kohden, Tokyo, Japan).
About two weeks postoperation, gastrointestinal contractile activity could be divided into two main patterns of activity, the interdigestive and digestive states.
In the interdigestive state, IMC (interdigestive migrating motor complex) were seen to occur at regular intervals of 100 to 120 min. in the gastric antrum, and migrated through the duodenum and jejunum at a constant velocity.
In all animals, feeding disrupted the regular IMC pattern. Experiments were carried out during interdigestive state. The drug was dissolved into 0.9% saline and administered through the indwelling Silastic tube for about 10 seconds in a volume of 0.3 ml/kg.
15 Min after the end of the IMC in the gastric antrum, which were subsequently flushed in with 0.9% saline.
The time until the next IMC is occurred from administration of the drug was measured, and used as a index for inhibitory activity of the drug on gastrointestinal motility.

Data set [2] deals with Female beagles. The following applies: dog, in vivo.
Description: (§1) One hour later, enteric aspirin tablets (containing 200 mg of the active ingredient) were administered orally together with 25 ml of water. Thereafter, blood samples were taken from the other cephalic vein at given time intervals, and the plasma obtained in the usual manner was stored at -20° C. until measurement.
(§2) As it passes through the intestinal wall, most of the ingested aspirin is metabolized and enters the blood stream as salicylic acid. […] Ethanol (200 μl) was added to 50 μl of plasma and the mixture was centrifuged at 10,000 rpm×1 min, with the resulting supernatant being subjected to HPLC.
(§3) The difference between the time from calcitonin administration to the absorption of aspirin and the time from physiological saline administration to the absorption of aspirin was calculated for each animal to determine the delay in gastric emptying time.
The next data set concerns Rats. Briefly: Effects of calcitonins on the inhibition of body weight gain and appetite. The following applies: intramuscular, 12.5, 50 and 200 IU/kg, 24 h later.
Data set [3] concerns Female beagles. Description: Effects of calcitonins on gastric emptying time (enteric aspirin absorption). The following applies: for Delay time (difference in time to aspirin absorption between calcitonin and physiological saline) / Lag time (time from aspirin administration to its absorption): individual animals.
Description: as §1, §2, §3

“And” between values parts separate entries of the source, which are not always exact repeats. Identical values can stand only once. Like-named read-outs stand apart in the source and are kept apart here. Positions of bridges follow the written chain, without caps; N, C: chain ends. Residues, ends and D or L forms follow the SMILES beside them.

With `CC(C)C[C@H](NC(=O)[C@H](CCCCN)NC(=O)CNC(=O)[C@H](CC(C)C)NC(=O)[C@@H](NC(=O)[C@@H]1CSSC[C@H](N)C(=O)N[C@@H](CO)C(=O)N[C@@H](CC(N)=O)C(=O)N[C@@H](CC(C)C)C(=O)N[C@@H](CO)C(=O)N[C@@H]([C@@H](C)O)C(=O)N1)C(C)C)C(=O)N[C@@H](CO)C(=O)N[C@@H](CCC(N)=O)C(=O)N[C@@H](CCC(=O)O)C(=O)N[C@@H](CC(C)C)C(=O)N[C@@H](Cc1c[nH]cn1)C(=O)N[C@@H](CCCCN)C(=O)N[C@@H](CC(C)C)C(=O)N[C@@H](CCC(N)=O)C(=O)N[C@H](C(=O)N[C@@H](Cc1ccc(O)cc1)C(=O)N1CCC[C@H]1C(=O)N[C@@H](CCCNC(=N)N)C(=O)N[C@H](C(=O)N[C@@H](CC(N)=O)C(=O)N[C@H](C(=O)NCC(=O)N[C@@H](CO)C(=O)NCC(=O)N[C@H](C(=O)N1CCC[C@H]1C(N)=O)[C@@H](C)O)[C@@H](C)O)[C@@H](C)O)[C@@H](C)O` [salmon calcitonin], in data set [1], the “dose at which competition with 125I labelled salmon calcitonin started” value was “at least 1 ng/ml”. The “effect on elevated blood (plasma) calcium concentration” value with hypercalcemic rats is on record as “caused rapid reduction in the elevated blood calcium concentration”. Also, the “delay of the occurrence of the next IMC” value with conscious dog (dose of 3 μg/kg i.v.) was 3 days. The “effect on the IMC / gastrointestinal motility” value with conscious dog is reported as “does-dependently inhibited the occurrence of the next IMC”. The “action in delaying the gastric emptying time” value (from here on “action”) in the data set with Female beagles [2] is reported as “very strong action in delaying the gastric emptying time”.

Regarding `CC[C@H](C)[C@H](NC(=O)[C@H](C)NC(=O)[C@@H](NC(=O)[C@H](CCC(N)=O)NC(=O)[C@@H]1CCCN1C(=O)[C@H](Cc1ccccc1)NC(=O)[C@@H](NC(=O)[C@H](Cc1c[nH]cn1)NC(=O)[C@H](Cc1ccccc1)NC(=O)[C@H](CCCCN)NC(=O)[C@H](CC(N)=O)NC(=O)[C@H](Cc1ccccc1)NC(=O)[C@H](CC(=O)O)NC(=O)[C@H](CCC(N)=O)NC(=O)[C@@H](NC(=O)[C@H](Cc1ccc(O)cc1)NC(=O)[C@@H](NC(=O)CNC(=O)[C@H](CC(C)C)NC(=O)[C@H](CCSC)NC(=O)[C@@H]1CSSC[C@H](N)C(=O)NCC(=O)N[C@@H](CC(N)=O)C(=O)N[C@@H](CC(C)C)C(=O)N[C@@H](CO)C(=O)N[C@@H]([C@@H](C)O)C(=O)N1)[C@@H](C)O)[C@@H](C)O)[C@@H](C)O)[C@@H](C)O)C(=O)NCC(=O)N[C@H](C(=O)NCC(=O)N[C@@H](C)C(=O)N1CCC[C@H]1C(N)=O)C(C)C` [human calcitonin], the “body weight change (inhibition of body weight gain)” value with Rats (FIG. 3) is recorded as “no differences”. For the same compound, the “food consumption (appetite)” value in the data set with Rats (FIG. 4) is “no differences”. In addition, in the data set with hypercalcemic rats, the “effect on elevated blood (plasma) calcium concentration” value is on record as “caused rapid reduction in the elevated blood calcium concentration”. The “effect on the IMC / gastrointestinal motility” value with conscious dog is “only a slight effect on the IMC”. The “action” value in the data set on Female beagles [3] (beagles, summary of Table 9) is “weak in such action”. Besides, in the data set with Female beagles [3] (dose 6 μg (1.2 IU)/kg i.v.), the “Delay time (difference in time to aspirin absorption between calcitonin and physiological saline)” value is 1.3 h and 2.6 h and 2.9 h; the “Lag time (time from aspirin administration to its absorption)” value is 3.0 h and 3.9 h and 4.0 h. In addition, in the data set with Female beagles [3] (dose 100 μg (20.0 IU)/kg i.v.), the “Delay time (difference in time to aspirin absorption between calcitonin and physiological saline)” value is 4.4 h and 5.0 h; the “Lag time (time from aspirin administration to its absorption)” value is 5.0 h and 6.9 h.

As for `CSCC[C@H](NC(=O)[C@@H]1CSSC[C@H](N)C(=O)NCC(=O)N[C@@H](CC(N)=O)C(=O)N[C@@H](CC(C)C)C(=O)N[C@@H](CO)C(=O)N[C@@H]([C@@H](C)O)C(=O)N1)C(=O)N[C@@H](CC(C)C)C(=O)NCC(=O)N[C@H](C(=O)N[C@@H](Cc1ccc(O)cc1)C(=O)N[C@H](C(=O)N[C@@H](CCC(N)=O)C(=O)N[C@@H](CC(=O)O)C(=O)N[C@@H](Cc1ccccc1)C(=O)N[C@@H](Cc1c[nH]cn1)C(=O)N[C@@H](CCCCN)C(=O)N[C@@H](CC(C)C)C(=O)N[C@@H](CCC(N)=O)C(=O)N[C@H](C(=O)N[C@@H](Cc1ccc(O)cc1)C(=O)N1CCC[C@H]1C(=O)N[C@@H](CCCNC(=N)N)C(=O)N[C@H](C(=O)N[C@@H](CC(N)=O)C(=O)N[C@H](C(=O)NCC(=O)N[C@@H](CO)C(=O)NCC(=O)N[C@H](C(=O)N1CCC[C@H]1C(N)=O)[C@@H](C)O)[C@@H](C)O)[C@@H](C)O)[C@@H](C)O)[C@@H](C)O)[C@@H](C)O` [Example 1, (1-16) human/(17-32) salmon hybrid calcitonin] (H-CGNLSTCMLGTYTQDFHKLQTYPRTNTGSGTP-NH2; disulfide 1-7), the “action” value with Female beagles [2] is “more similar to human calcitonin than salmon calcitonin in delaying to gastric emptying time”.
